This note sets out measurements from patent US7928140B2, “Benzothiazole PI3 kinase modulators for cancer treatment” (Amgen Inc., priority 2007, dated 2011).

Structures are written as SMILES.

For one experiment, the target named is T1, PI3K β (Homo sapiens, UniProt P42338).
T1 construct: Full length p110 subunits of PI3K α, β and δ, N-terminally labeled with polyHis tag; polyHis (N); made in house; host or cells: Sf9 insect cells (baculovirus)
In words: In vitro PI3 kinase enzyme assay (beta), ATP loss, bioluminescence.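 Note: purified p110β/p85 heterodimer with PtdIns(4,5)P2 as acceptor, incubated at room temperature, leftover ATP read by luminescence, inhibition scaled to compound-free wells with and without enzyme.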 Format: biochemical. The following applies: read-out: PI3Kβ ATP loss IC50.

A further experiment has as its target T2, PI3K α (Homo sapiens, UniProt P42336).
T2 construct: Full length p110 subunits of PI3K α, β and δ, N-terminally labeled with polyHis tag; polyHis (N); made in house; host or cells: Sf9 insect cells (baculovirus)
In words: In vitro PI3 kinase enzyme assay (alpha), ATP loss, bioluminescence.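 Note: purified p110α/p85 heterodimer acting on PtdIns(4,5)P2 at room temperature, remaining ATP read by luminescence, inhibition scaled between compound-free wells with and without enzyme.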 The class given is biochemical. The following applies: read-out: PI3Kα ATP loss IC50.

T1 sequence (P42338 whole entry): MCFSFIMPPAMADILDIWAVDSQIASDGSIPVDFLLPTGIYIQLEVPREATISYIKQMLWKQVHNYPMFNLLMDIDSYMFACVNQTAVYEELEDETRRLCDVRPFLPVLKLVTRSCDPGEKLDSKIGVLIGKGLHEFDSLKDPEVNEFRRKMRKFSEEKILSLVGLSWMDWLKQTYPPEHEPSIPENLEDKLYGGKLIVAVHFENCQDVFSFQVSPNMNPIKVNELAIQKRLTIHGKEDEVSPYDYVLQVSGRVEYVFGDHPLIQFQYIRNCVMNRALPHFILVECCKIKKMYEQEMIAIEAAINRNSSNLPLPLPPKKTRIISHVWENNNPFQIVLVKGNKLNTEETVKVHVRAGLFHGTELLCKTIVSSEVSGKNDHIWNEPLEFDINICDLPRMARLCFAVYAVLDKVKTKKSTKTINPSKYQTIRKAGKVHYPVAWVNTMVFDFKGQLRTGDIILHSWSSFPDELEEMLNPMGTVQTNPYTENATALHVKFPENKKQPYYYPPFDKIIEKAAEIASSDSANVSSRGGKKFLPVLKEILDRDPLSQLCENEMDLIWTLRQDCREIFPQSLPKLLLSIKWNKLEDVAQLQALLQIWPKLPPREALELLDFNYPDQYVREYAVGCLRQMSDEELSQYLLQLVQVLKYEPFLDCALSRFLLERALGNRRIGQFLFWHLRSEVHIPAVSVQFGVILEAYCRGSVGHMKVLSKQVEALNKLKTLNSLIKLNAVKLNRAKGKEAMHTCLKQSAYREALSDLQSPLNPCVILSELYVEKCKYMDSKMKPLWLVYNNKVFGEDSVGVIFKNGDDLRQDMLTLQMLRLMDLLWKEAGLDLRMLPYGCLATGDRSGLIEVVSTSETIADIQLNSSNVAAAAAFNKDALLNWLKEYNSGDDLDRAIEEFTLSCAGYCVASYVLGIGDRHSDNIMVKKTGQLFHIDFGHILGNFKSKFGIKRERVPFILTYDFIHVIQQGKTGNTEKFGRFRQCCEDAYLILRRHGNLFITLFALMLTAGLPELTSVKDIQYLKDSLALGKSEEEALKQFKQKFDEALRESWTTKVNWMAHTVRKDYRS
T1 sequence (P27986 whole entry partner): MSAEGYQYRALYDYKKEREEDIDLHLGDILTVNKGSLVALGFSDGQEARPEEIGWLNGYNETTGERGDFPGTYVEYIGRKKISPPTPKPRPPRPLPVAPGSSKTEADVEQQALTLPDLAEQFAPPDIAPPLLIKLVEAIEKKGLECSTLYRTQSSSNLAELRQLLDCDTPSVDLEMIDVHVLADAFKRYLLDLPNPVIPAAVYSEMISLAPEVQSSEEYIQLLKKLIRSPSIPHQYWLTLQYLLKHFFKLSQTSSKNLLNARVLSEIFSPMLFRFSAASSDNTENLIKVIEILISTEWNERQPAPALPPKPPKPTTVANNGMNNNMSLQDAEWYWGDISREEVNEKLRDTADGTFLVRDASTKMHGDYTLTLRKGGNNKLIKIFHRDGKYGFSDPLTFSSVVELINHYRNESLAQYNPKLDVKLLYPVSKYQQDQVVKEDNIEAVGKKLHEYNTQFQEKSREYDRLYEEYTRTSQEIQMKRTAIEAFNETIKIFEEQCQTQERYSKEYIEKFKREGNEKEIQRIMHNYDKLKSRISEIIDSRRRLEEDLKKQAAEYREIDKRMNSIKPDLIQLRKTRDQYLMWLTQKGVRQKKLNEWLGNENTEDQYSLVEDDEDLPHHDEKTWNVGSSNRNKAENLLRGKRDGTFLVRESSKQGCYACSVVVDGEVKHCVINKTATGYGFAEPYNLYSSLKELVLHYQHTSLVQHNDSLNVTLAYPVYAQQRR
T2 sequence (P42336 whole entry, species assumed): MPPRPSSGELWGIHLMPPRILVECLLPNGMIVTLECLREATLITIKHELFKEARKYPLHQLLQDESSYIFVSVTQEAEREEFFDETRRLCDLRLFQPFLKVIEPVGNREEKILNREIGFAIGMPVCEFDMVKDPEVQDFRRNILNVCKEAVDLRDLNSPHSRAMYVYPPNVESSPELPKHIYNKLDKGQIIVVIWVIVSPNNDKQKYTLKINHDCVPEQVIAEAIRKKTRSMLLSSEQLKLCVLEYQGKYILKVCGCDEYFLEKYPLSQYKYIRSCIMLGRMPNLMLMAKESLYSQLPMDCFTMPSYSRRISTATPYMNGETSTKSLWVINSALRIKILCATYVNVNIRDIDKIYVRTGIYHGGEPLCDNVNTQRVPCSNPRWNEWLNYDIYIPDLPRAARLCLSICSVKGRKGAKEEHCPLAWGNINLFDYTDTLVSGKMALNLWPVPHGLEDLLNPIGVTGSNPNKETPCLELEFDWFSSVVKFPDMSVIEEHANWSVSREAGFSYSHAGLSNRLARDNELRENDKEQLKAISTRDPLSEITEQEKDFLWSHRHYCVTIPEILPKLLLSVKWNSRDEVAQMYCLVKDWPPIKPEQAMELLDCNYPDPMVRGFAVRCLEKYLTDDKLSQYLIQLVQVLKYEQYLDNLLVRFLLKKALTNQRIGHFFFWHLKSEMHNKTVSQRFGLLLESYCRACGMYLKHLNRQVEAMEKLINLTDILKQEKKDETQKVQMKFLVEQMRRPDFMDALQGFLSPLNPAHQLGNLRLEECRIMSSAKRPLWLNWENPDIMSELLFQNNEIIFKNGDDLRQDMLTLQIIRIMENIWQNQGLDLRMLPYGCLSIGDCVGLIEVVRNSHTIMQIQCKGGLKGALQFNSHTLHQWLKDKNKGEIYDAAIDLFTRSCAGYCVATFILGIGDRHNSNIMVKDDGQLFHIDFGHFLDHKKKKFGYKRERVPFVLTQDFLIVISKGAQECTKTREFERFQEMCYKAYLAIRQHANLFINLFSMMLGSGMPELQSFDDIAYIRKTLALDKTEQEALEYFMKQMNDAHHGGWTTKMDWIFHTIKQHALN
T2 sequence (P27986 whole entry partner, species assumed): as the sequence (P27986 whole entry partner) above

For orientation: IC50 means the midpoint of a concentration-inhibition curve. For the molecule `CC(=O)Nc1nc2ccc(-c3cncc(N(C)S(=O)(=O)c4ccc(C(F)(F)F)cc4)c3)cc2s1` [Example 218, N-(6-(5-(N-methyl-4-(trifluoromethyl)phenylsulfonamido)pyridin-3-yl)benzo[d]thiazol-2-yl)acetamide], the IC50 on PI3K β stood at 8.27 µM; on PI3K α it was 1050 nM.
In the same order, the values of `COc1ccc(-c2cccc3nc(NC(C)=O)sc23)cc1F` [Example 94] are 24.8 µM and 998 nM.
The like results for `COc1cccc(-c2cccc3nc(NC(C)=O)sc23)c1` [Example 96, N-(7-(3-methoxyphenyl)-1,3-benzothiazol-2-yl)acetamide] were, in that order, above 40 µM and 1680 nM.
In the same order, the values of `CC(=O)Nc1nc2ccc(-c3cncc(N(C)S(=O)(=O)c4ccc(Cl)cc4)c3)cc2s1` [Example 220, N-(6-(5-(4-chloro-N-methylphenylsulfonamido)pyridin-3-yl)benzo[d]thiazol-2-yl)acetamide] are 3.33 µM and 539 nM.
Turning to `COc1cccc(Sc2nccc(-c3ccc4nc(NC(C)=O)sc4c3)n2)c1` [Example 41, N-(6-(2-((3-methoxyphenyl)sulfanyl)-4-pyrimidinyl)-1,3-benzothiazol-2-yl)acetamide], the IC50 stood at 0.126 µM at PI3K β and 192 nM on PI3K α.
The like results for `COc1cc(Cl)ncc1-c1ccc2nc(NC(C)=O)sc2c1` [Example 246, N-(6-(6-chloro-4-methoxypyridin-3-yl)benzo[d]thiazol-2-yl)acetamide] were, in that order, 12.4 µM and 256 nM.
Regarding `CC(=O)Nc1nc2ccc(-c3ccnc(Sc4ccc(Cl)cc4)n3)cc2s1` [Example 138, N-(6-(2-((4-chlorophenyl)sulfanyl)-4-pyrimidinyl)-1,3-benzothiazol-2-yl)acetamide], the values for the 50% inhibitory concentration (IC50) at PI3K β and at PI3K α were 2.88 µM and 69.9 nM, respectively.
The like results for `CC(=O)Nc1nc2ccc(-c3cnccc3CO)cc2s1` [Example 251, N-(6-(4-(hydroxymethyl)pyridin-3-yl)benzo[d]thiazol-2-yl)acetamide] were, in that order, above 40 µM and 1910 nM.
The like results for `CNc1ncc(-c2ccc3nc(NC(C)=O)sc3c2)cc1N` [Example 152, N-(6-(5-amino-6-(methylamino)pyridin-3-yl)benzo[d]thiazol-2-yl)acetamide] were, in that order, 0.864 µM and 275 nM.
For the molecule `COc1ccc(S(=O)(=O)Nc2cc(-c3ccc4nc(SC)sc4c3)cnc2Cl)cc1` [Example 327, N-(2-chloro-5-(2-(methylsulfanyl)-1,3-benzothiazol-6-yl)-3-pyridinyl)-4-methoxybenzenesulfonamide], the IC50 at PI3K β amounted to 0.384 µM; at PI3K α, 222 nM.
In the case of `CC(=O)Nc1ccc(Sc2nccc(-c3ccc4nc(NC(C)=O)sc4c3)n2)cc1` [Example 29, N-(4-((4-(2-(acetylamino)-1,3-benzothiazol-6-yl)-2-pyrimidinyl)sulfanyl)phenyl)acetamide], the IC50 is 2.4 µM at PI3K β and 333 nM at PI3K α.
In the same order, the values of `CC(=O)Nc1nc2ccc(-c3ccnc(N(C)S(=O)(=O)c4ccc(C)cc4)c3)cc2s1` [Example 215, N-(6-(2-(N,4-dimethylphenylsulfonamido)pyridin-4-yl)benzo[d]thiazol-2-yl)acetamide] are 0.45 µM and 438 nM.
In the same order, the values of `CC(=O)Nc1nc2ccc(-c3ccnc(N(C)S(=O)(=O)c4cccc5cnccc45)n3)cc2s1` [Example 208, N-(6-(2-(N-methylisoquinoline-5-sulfonamido)pyrimidin-4-yl)benzo[d]thiazol-2-yl)acetamide] are 0.743 µM and 462 nM.
In the same order, the values of `CC(=O)Nc1nc2ccc(-c3ccnc(Sc4cc(C)ccc4C)n3)cc2s1` [Example 123, N-(6-(2-((2,5-dimethylphenyl)sulfanyl)-4-pyrimidinyl)-1,3-benzothiazol-2-yl)acetamide] are 0.537 µM and 23.5 nM.
For `Nc1nc2ccc(-c3cccc(NS(=O)(=O)c4ccccc4)n3)cc2s1` [Example 71, N-(6-(2-Aminobenzo[d]thiazol-6-yl)pyridin-2-yl)benzenesulfonamide], the IC50 on PI3K β was found to be 1.44 µM; on PI3K α, 3830 nM.
`CN(C)c1cc(-c2ccc3nc(NS(C)(=O)=O)sc3c2)cnc1Cl` [Example 276, N-(6-(6-chloro-5-(dimethylamino)pyridin-3-yl)benzo[d]thiazol-2-yl)methanesulfonamide]: the IC50 at PI3K β is 29.9 µM; at PI3K α it was 1720 nM.
The like results for `CC(=O)Nc1nc2ccc(-c3ccnc(OCCCO)n3)cc2s1` [Example 102, N-(6-(2-(3-hydroxypropoxy)-4-pyrimidinyl)-1,3-benzothiazol-2-yl)acetamide] were, in that order, above 40 µM and 664 nM.
The like results for `CC(=O)Nc1nc2ccc(-c3cnc4c(c3)NC(C)(C)N4C)cc2s1` [Example 157, N-(6-(2,2,3-trimethyl-2,3-dihydro-1H-imidazo[4,5-b]pyridin-6-yl)benzo[d]thiazol-2-yl)acetamide] were, in that order, above 40 µM and 664 nM.
In the case of `CC(=O)Nc1nc2ccc(-c3ccnc(OCCCN(C)C)n3)cc2s1` [Example 8], the IC50 at PI3K β was above 40 µM; on PI3K α it was 11100 nM.
The like results for `CC(=O)Nc1nc2ccc(-c3ccnc(N4CCCC4c4ccccc4)n3)cc2s1` (racemic) [Example 266, N-(6-(2-(2-phenylpyrrolidin-1-yl)pyrimidin-4-yl)benzo[d]thiazol-2-yl)acetamide] were, in that order, 1.61 µM and 2620 nM.
The like results for `Oc1cc(-c2ccc3ncsc3c2)cnc1Cl` [Example 334, 5-(1,3-benzothiazol-6-yl)-2-chloro-3-pyridinol] were, in that order, 1.35 µM and 116 nM.
In the same order, the values of `CC(=O)Nc1nc2ccc(-c3ccnc(SCc4ccccc4C)n3)cc2s1` [Example 37, N-(6-(2-((2-methylbenzyl)sulfanyl)-4-pyrimidinyl)-1,3-benzothiazol-2-yl)acetamide] are 4.12 µM and 119 nM.
As for `CC(=O)Nc1nc2ccc(-c3ccnc(Sc4ccc(C)c(C)c4)n3)cc2s1` [Example 128, N-(6-(2-((3,4-dimethylphenyl)sulfanyl)-4-pyrimidinyl)-1,3-benzothiazol-2-yl)acetamide], the figures for the IC50 on PI3K β and at PI3K α were 0.522 µM and 33.9 nM, respectively.
Regarding `CC(=O)Nc1nc2ccc(-c3ccnc(N4CCOCC4)n3)cc2s1` [Example 160, N-(6-(2-(4-morpholinyl)-4-pyrimidinyl)-1,3-benzothiazol-2-yl)acetamide], the IC50 came to 18.9 µM on PI3K β and 2740 nM at PI3K α.
In the same order, the values of `CC(=O)Nc1nc2ccc(-c3ccnc(OCc4ccc5[nH]ccc5c4)n3)cc2s1` [Example 24, N-(6-(2-(1H-indol-5-ylmethoxy)-4-pyrimidinyl)-1,3-benzothiazol-2-yl)acetamide] are 8.86 µM and 8030 nM.
As to `CC(=O)Nc1nc2ccc(-c3cc(C)nc(N)n3)cc2s1` [Example 101, N-(6-(2-Amino-6-methylpyrimidin-4-yl)benzo[d]thiazol-2-yl)acetamide], the IC50 at PI3K β is 9.99 µM; on PI3K α, 4190 nM.
In the same order, the values of `CC(=O)Nc1nc2ccc(-c3cc(OC(C)C#N)cnc3Cl)cc2s1` (stereo not drawn) [Example 291, N-(6-(2-chloro-5-(1-cyanoethoxy)pyridin-3-yl)benzo[d]thiazol-2-yl)acetamide] are 3.79 µM and 983 nM.
